Where “and” joins values, the source holds several entries; their conditions need not be identical. Equal values may be shown once.
Key:
[1] = tested on: wound area of skin wound model mice; assay: Histopathological observation of wound area on Day 28; type: in vivo, nude mice; parameters: key to Vascularization: 0: Decreased vascularity compared to normal dermis.; 1: Dermal vascularity within normal limits.; 2: Minimally increased prominence of dermal or wound capillaries.; 3: Mild increase in prominence of dermal or wound capillaries.; 4: Moderate increase in prominence of dermal or wound capillaries; key to Collagen quality: 0: Lack of fibroplasia and/or collagen in wound.; 1: Minimal to mild fibroplasia in the granulation tissue of the wound.; 2: Moderate fibroplasia and collagen throughout the wound.; 3: Superficial portion of the wound has dense collagen similar to normal dermal collagen.; 4: Dense collagen throughout the wound; key to Inflammation: 0: No increase in inflammatory cells (within normal limits for dermis of nude mice).; 1: Minimal increase in inflammatory cells.; 2: Mild increase in inflammatory cells.; 3: Moderate increase in inflammatory cells.; 4: Marked increase in inflammatory cells; key to Epithelization: 0: No re-epithelization.; 1: Partial re-epithelization. (Wound surface is not completely covered by epithelial cells.); 2: Re-epithelization across the full surface of the wound, but the epithelium is not a stratified squamous epithelium with multiple strata; 3: Re-epithelization across the full surface of the wound with a stratified squamous epithelium and keratinization, but there is evidence of active remodeling; 4: Complete re-epithelization with a keratinized stratified squamous epithelium with remodeling and organization within normal limits
Experimental: In order to evaluate parameters of wound healing in the skin of nude mice from three groups, histopathological examination was carried out.
After the observation on Day 28, each mouse was sacrificed and a paraffin block containing the wound area, through the center of each wound perpendicular to the apparent longest axis was produced. A hematoxylin and eosin-stained and a trichrome-stained histologic sections were prepared from each block. Using the H&E-stained section, the epithelization, vascularization, and inflammation associated with the wound were ranked, and using the trichrome-stained section the amount and quality of collagen in the area of the wound were evaluated. The results of these evaluations were shown in Table 2-1 (control group), Table 2-2 (test group-1), and Table 2-3 (test group-2).
Definitions for each score are as follows.
0=No re-epithelization. 1=Partial re-epithelization. (Wound surface is not completely covered by epithelial cells.) 2=Re-epithelization across the full surface of the wound, but the epithelium is not a stratified squamous epithelium with multiple strata (stratum basale, stratum spinosum, stratum granulosum). 3=Re-epithelization across the full surface of the wound with a stratified squamous epithelium and keratinization, but there is evidence of active remodeling in the form of apoptotic or necrotic cells or dyskeratosis, or multiple mitotic figures, or irregular thickness or irregular strata (hyperplasia). 4=Complete re-epithelization with a keratinized stratified squamous epithelium with remodeling and organization within normal limits. (The only alteration is lack of hair follicles and adenexia in the dermis.)
0=Decreased vascularity compared to normal dermis. 1=Dermal vascularity within normal limits. […] Increased prominence may be due to increased number, dilation (congestion or hyperemia), or increased size. 3=Mild increase in prominence of dermal or wound capillaries. 4=Moderate increase in prominence of dermal or wound capillaries. <Inflammation> Inflammation consisted of increased number of neutrophils and macrophages in the dermis and scar tissue beneath the epidermis. […] 0=No increase in inflammatory cells (within normal limits for dermis of nude mice). 1=Minimal increase in inflammatory cells. Inflammation tends to be multifocal, perivascular. 2=Mild increase in inflammatory cells. Inflammation tends to be multifocal, perivascular. 3=Moderate increase in inflammatory cells. 4=Marked increase in inflammatory cells.
0=Lack of fibroplasia and/or collagen in wound. 1=Minimal to mild fibroplasia in the granulation tissue of the wound. 2=Moderate fibroplasia and collagen throughout the wound. 3=Superficial portion of the wound has dense collagen similar to normal dermal collagen. 4=Dense collagen throughout the wound. There are relatively fewer fibroblasts and the collagen is slightly denser than normal dermis.
Depth of collagen (μm) beneath the epithelium in the wound was estimated at the thickest portion of the collagen using an ocular micrometer that was calibrated with an objective micrometer (×10).

[2] = tested on: skin wound model mice (1 cm×1 cm wound); assay: Skin wound model of mice: wound area and observation of the affected area; type: in vivo, NTaC:NIHS-Foxn1 <nu> type nude mice
Experimental: 30 NTaC:NIHS-Foxn1 type nude mice (female, weight ˜20 g) were used as experimental animals. The mice were housed in the condition of a temperature of 17 to 26° C., a relative humidity of 30 to 70%, a 12-hour light/dark cycle, minimum of ten fresh air changes/hour, and diet was provided once daily and the mice had access to water ad libitum.
Anesthesia was induced by placing the mice in a chamber filled with isoflurane at 2.5 to 4%, and maintained with isoflurane delivered through a nose cone at 0.5 to 2.5%.
All residual hair was removed from the upper right dorsum, and the operative area was cleaned with three alternating scrubs of povidone-iodine scrub and 70% alcohol. Once the alternating scrubs were complete, a final application of povidone-iodine scrub was applied and allowed to dry. The area was draped for aseptic surgery.
Forceps were used to pinch up a fold of skin (at what would become the lower right corner of the wound), and scissors were used to separate the skin and create a 1 cm×1 cm wound. Blood was soaked up with a sterile gauze pad.
(b-1) The centrifuge tube was placed into a cool water bath. The bath was sonicated for 30 min, and then the contents of the tube were vortexed for one minute. Air bubbles were then removed via centrifugation (3000 rpm, 1 min). Vortexing and centrifugation were repeated as necessary to remove all bubbles. The 1% PuraMatrix (trade mark) solution was prepared and administered to animals in test group-1.
(b-2) The 5 ng/μL hbFGF PBS solution (20 μL) was added to the sterile centrifuge tube previously containing 1 mL of 1% PuraMatrix (trade mark). The mixture was then vortexed to homogenize. The centrifuge tube was placed into the cool water bath and sonicated for 30 min, vortexed for 1 min, then centrifuged at room temperature (3000 rpm, 1 min) to remove air bubbles. Vortexing and centrifugation were repeated as necessary to remove all air bubbles. The PuraMatrix+hbFGF solution obtained was administered to animals in the test group-2.
The 30 skin wound model mice produced in (a) were divided into three groups of 10 mice, and treated according to the scheme in Table 1 immediately after the surgical procedure. The day when surgical procedure was performed (wound creation) was regarded as Day 0. Observation of wound area was performed at just before a treatment on Day 0 (FIG. 1), Day 7 (FIG. 2), Day 14 (FIG. 3), Day 21 (FIG. 4) and Day 28 (FIG. 5).
Baseline wound measurements were recorded prior to the application of the first dressing. Weekly measurements were obtained by removing the dressing of self-assembling hydropeptide gel (for the control group, a petroleum jelly impregnated gauze only) and exposing the wound site. A ruler was placed adjacent to the wound area and digital photographs were obtained, thereafter, the wound was re-dressed with the self-assembling hydropeptide gel (for the control group, a petroleum jelly impregnated gauze only). Wound area was calculated using ImageJ version 1.37 at the NIH website.

[3] = liquid when pH is not higher than 5.0; cited from earlier work
[4] = Day 28, compared to control group
[5] = rank score, Day 28, H&E-stained section, one value per mouse

In the case of Ac-(RADA)4-CONH2 [PuraMatrix], the Collagen depth ([1]; Day 28, beneath the epithelium at thickest portion of collagen, one value per mouse) is reported as 550 μm (2×) and 250 μm (3×) and 470 μm and 500 μm (2×) and 540 μm and 200 μm, the “ranking of epithelization and vascularization across groups” value ([1]; Day 28, compared across the three groups) is reported as “little difference” and the “mice with an inflammation rank 0” value [1, 4] is reported as “larger numbers of mice”. The “mice with dense collagen throughout the wound scar” value [1, 4] was “larger numbers of mice”, the “typical state of wound area structure in pathological section” value ([1]; Day 28, photomicrograph, compared to control group (FIG. 8, FIG. 9)) was “there is dense collagen so that the dermis 2 is slightly more stained” and the “mice with rank scores 4, 1, 0, 4 (most advanced wound healing)” value ([1]; Day 28, no mice in control group) was “one”. For the same substance, the Epithelization [1, 5] was 4 (5×) and 3 (5×), the Inflammation [1, 5] was 1 (5×) and 0 (3×) and 2 (2×) and the Vascularization [1, 5] was 2 (6×) and 1 (4×). The Collagen quality ([1]; rank score, Day 28, trichrome-stained section, one value per mouse) was 3 (3×) and 4 (7×), the wound area ([2]; Day 7, compared to control group (FIG. 2)) was “decreased drastically” and the “healing rate (ratio of the wound area to the area when wound created, FIG. 6)” value ([2]; Day 7 and Day 14, compared to control group, 100 μL to wound area) was “healing more quickly than those in the control group”. The “healing of the wound area” value ([2]; Day 14 (FIG. 3)) was “almost complete”, the “healing of the wounds” value ([2]; Day 21 (FIG. 4)) was “completely healed” and the puckering of skin ([2]; Day 21, compared to control group (FIG. 4)) was “less puckering of skin”. The scar ([2]; Day 28, observation before dissection) was “visible in all animals”, the wound contraction noted ([2]; Day 28, observation before dissection, all animals in control group (FIG. 5)) was 8/10 and the “overall wound healing effect” value ([2]; conclusion from Day 0-28 observations) was “significant healing effect visibly recognized”. For the same substance, the “pH at which the peptide solution forms a gel (self-assembles into nanofibers)” value [3] was “higher than 5.0”.

— patent publication US20130296239A1, “Material for Wound Healing and Skin Reconstruction” (3-D Matrix, Ltd., priority 2007, published 2013)
